System: L. maculans
Test: Inhibition of growth of L. maculans by other strains and polymyxins (qualitative)
Assay type: cell-based, Leptosphaeria maculans

polymyxins
inhibitory effect against L. maculans: ineffective

From patent US6602500B1, “Paenibacillus polymyxa strain ATCC 202127 for biocontrol of bacteria and fungi” (The Governors of the University of Alberta, priority 1998, dated 2003)
